Laboratory results reported in patent US9562031B1, “Phenethyldihydrobenzodioxolones and methods of use” (Sequoia Sciences, Inc., priority 2015, dated 2017).

Assays:
SK-Mel-2 cells = experiment: antiproliferation assay, SK-Mel-2; type: cell-based; settings: Homo sapiens
Method: (§1) For the antiproliferation assay, NCI-H460 (large cell lung carcinoma) or M14 (amelanotic melanoma) cells were grown in RPMI-1640 with 10% FBS supplemented with L-glutamine and HEPES. Cells were seeded into 96-well plates at 5×10^2 to 5×10^4 cells/well and allowed to adhere overnight; the medium was then removed. A stock solution of test compound in DMSO was diluted in medium to generate a series of working solutions. Aliquots (100 μl) of the working solutions were then added to the appropriate test wells to expose cells to the final concentrations of compound in a total volume of 100 μl. Seven different concentrations were tested, with 2-5 wells per concentration. Camptothecin was used as a positive control; wells containing vehicle without compound were used as negative controls. Plates were kept for 72 h in a 37° C., 5% CO2 incubator. After incubation, viable cells were detected with the CELLTITER 96 AQueous Non-Radioactive Cell Proliferation Assay (Promega), and IC50 values were determined using GraphPad Prism 5 software.
(§2) Antiproliferation of several of the active compounds was tested against additional cell lines.

[1] = tested on: M14 (amelanotic melanoma) cells; experiment: antiproliferation assay (72 h, CELLTITER 96), M14; type: cell-based, human; settings: Homo sapiens; Table 4
How it was run: (§3)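 Human M14 melanoma and NCI-H460 lung carcinoma cells in RPMI-1640/10% FBS, seeded at 5×10^2–5×10^4 cells/well and adhered overnight, then exposed to seven compound concentrations for 72 h at 37 °C. Viable cells read by CellTiter 96 AQueous (MTS); IC50 = concentration giving 50% of maximal growth inhibition.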

LOX-IMVI cells = experiment: antiproliferation assay, LOX-IMVI; type: cell-based; settings: Homo sapiens
Method: as §1, §2

[2] = tested on: NCI-H460 (large cell lung carcinoma) cells; experiment: antiproliferation assay (72 h, CELLTITER 96), NCI-H460; type: cell-based, human; settings: Homo sapiens, NCI-H460, Table 4; read-out: NCI-H460 IC50
How it was run: as §3

SK-Mel-5 cells = experiment: antiproliferation assay, SK-Mel-5; type: cell-based; settings: Homo sapiens
Method: as §1, §2

UACC-62 cells = experiment: antiproliferation assay, UACC-62; type: cell-based; settings: Homo sapiens
Method: as §1, §2

HCT-116 cells = experiment: antiproliferation assay, HCT-116; type: cell-based; settings: Homo sapiens
Method: as §1, §2

A549 cells = experiment: antiproliferation assay, A549; type: cell-based; settings: Homo sapiens
Method: as §1, §2

PC-3 cells = experiment: antiproliferation assay, PC-3; type: cell-based; settings: Homo sapiens
Method: as §1, §2

U-87 MG cells = experiment: antiproliferation assay, U-87 MG; type: cell-based; settings: Homo sapiens
Method: as §1, §2

NCI-H441 cells = experiment: antiproliferation assay, NCI-H441; type: cell-based; settings: Homo sapiens
Method: as §1, §2

NCI-H187 cells = experiment: antiproliferation assay, NCI-H187; type: cell-based; settings: Homo sapiens
Method: as §1, §2

NCI-H526 cells = experiment: antiproliferation assay, NCI-H526; type: cell-based; settings: Homo sapiens
Method: as §1, §2

NCI/ADR-RES cells = experiment: antiproliferation assay, NCI/ADR-RES; type: cell-based; settings: Homo sapiens
Method: as §1, §2
Compound 4 was tested for antiproliferation activity against several paclitaxel-resistant human cancer cell lines.

IC50 (SK-Mel-2 cells) [nM]	IC50 [1] [nM]	IC50 [2] [nM]	IC50 (SK-Mel-5 cells) [nM]	IC50 (HCT-116 cells) [nM]	IC50 (A549 cells) [nM]	IC50 (PC-3 cells) [nM]	IC50 (U-87 MG cells) [nM]	IC50 (NCI-H441 cells) [nM]	IC50 (NCI-H187 cells) [nM]	IC50 (NCI-H526 cells) [nM]	SMILES	IC50 (LOX-IMVI cells) [nM]	IC50 (UACC-62 cells) [nM]	IC50 (NCI/ADR-RES cells) [nM]
110	81	75	34	22	110	66	100	–	–	–	C=CC[C@H]1C[C@]2([C@H](C)Cc3ccc(OC)cc3)OCOC2=CC1=O [Compound 26, (6S,7aR)-6-allyl-7a-((R)-1-(4-methoxyphenyl)propan-2-yl)-7,7a-dihydrobenzo[d][1,3]dioxol-5(6H)-one]	150	96	–
–	7.9	83	–	13	–	–	–	140	46	79	C=CC[C@H]1C[C@]2([C@@H](C)Cc3ccc(OC)c(O)c3)OCOC2=CC1=O [Compound 32, (6S,7aR)-6-allyl-7a-((S)-1-(3-hydroxy-4-methoxyphenyl)propan-2-yl)-7,7a-dihydrobenzo[d][1,3]dioxol-5(6H)-one]	12	–	38
